Data published in patent publication US20260201008A1, “SECRETIN-DERIVED GLP1R SELECTIVE AGONISTS” (GUBRA A/S, priority 2023, published 2026).
pEC50: −log10 of the molar value. Where two headings read alike, the source gives them in different places. Numbered stars: 1 amine (or outer) side, 2 acyl side, 3 side chain; on linkers, the order of the positions; unused ones are H or OH. Square brackets hold non-standard residues; d marks the D form. Side chains are listed from the residue outwards. Peptide text beside a SMILES is read from it. * marks the point of attachment. C20 diacid = O=C(O)CCCCCCCCCCCCCCCCCCC(=O)*; γGlu = O=C(O)[C@H](CCC(=O)[*:2])N[*:1]; AEEA = NCCOCCOCC(=O)O; Aib = CC(C)(N)C(=O)O

Key:
GLP1R = GLP1R (Homo sapiens, UniProt P43220); test: hGLP1R potency, cAMP accumulation in CHO-K1 cells stably overexpressing hGLP1R; format: cell-based; design: host or cells: CHO-K1; conditions: for EC50: cAMP accumulation, CHO-K1 cells overexpressing hGLP1R; for SCTR EC50/GLP1R EC50 ratio: selectivity for hGLP1R over hSCTR, cAMP accumulation in CHO-K1 cells
Summary of the method: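 Thawed cells go straight into buffer containing 0.5 mM IBMX and 0.05% casein, get graded compound doses for 30 min at room temperature, and are then assayed for accumulated cAMP by time-resolved FRET. Human GLP-1(7-36) serves as positive control; EC50 is derived by nonlinear regression.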

[1] = Turbidity of crude library peptides (absorbance at 600 nm); format: physicochemical; conditions: Physical stability of peptides
Summary of the method: (§1)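 Crude peptides at 267 μM in 50 mM sodium acetate pH 4.0 or 50 mM sodium phosphate pH 7.0, pre-incubated 1-2 h at room temperature, then 4 μM final ThT added. Turbidity read first as A600. ThT fluorescence (ex 450/em 480 nm) read every 10 min for 72 h at 40° C, with 5 min shaking before each read; fibril formation = average emission.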

[2] = Fibril formation of crude library peptides (Thioflavin T); format: physicochemical; design: key: average ThT fluorescence emission at 480 nm (ex 450 nm), raw units; conditions: Physical stability of peptides
Summary of the method: as §1

SCTR = SCTR (Homo sapiens, UniProt P47872); test: hSCTR potency, cAMP accumulation in CHO-K1 cells stably overexpressing hSCTR; format: cell-based; design: alternatively Euroscreen ES-712-AF; FAST-0161L; host or cells: CHO-K1; conditions: for EC50: cAMP accumulation, CHO-K1 cells overexpressing hSCTR
Summary of the method: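 Read-out is TR-FRET cAMP detection, recorded one hour after reagent addition, in CHO-K1 cells stably overexpressing hSCTR. Cells in DPBS containing 0.05% casein and 0.5 mM IBMX are exposed to graded peptide doses for 30 min at room temperature, with human secretin as reference agonist.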

[3] = read-out: hGLP1R pEC50 (converted)
[4] = read-out: hSCTR pEC50 (converted)

Sequence of SCTR (P47872 23-440): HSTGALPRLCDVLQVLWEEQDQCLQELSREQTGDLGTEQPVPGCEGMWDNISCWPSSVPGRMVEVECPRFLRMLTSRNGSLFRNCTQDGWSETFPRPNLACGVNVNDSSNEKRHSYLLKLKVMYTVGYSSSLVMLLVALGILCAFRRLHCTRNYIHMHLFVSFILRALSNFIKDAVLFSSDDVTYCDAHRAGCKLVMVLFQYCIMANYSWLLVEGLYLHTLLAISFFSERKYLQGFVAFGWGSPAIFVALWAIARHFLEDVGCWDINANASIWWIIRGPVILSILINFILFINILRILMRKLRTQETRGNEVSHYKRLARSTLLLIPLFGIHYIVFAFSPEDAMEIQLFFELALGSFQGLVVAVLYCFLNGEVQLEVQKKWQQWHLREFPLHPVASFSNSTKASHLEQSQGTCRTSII
Sequence of GLP1R (P43220 24-463): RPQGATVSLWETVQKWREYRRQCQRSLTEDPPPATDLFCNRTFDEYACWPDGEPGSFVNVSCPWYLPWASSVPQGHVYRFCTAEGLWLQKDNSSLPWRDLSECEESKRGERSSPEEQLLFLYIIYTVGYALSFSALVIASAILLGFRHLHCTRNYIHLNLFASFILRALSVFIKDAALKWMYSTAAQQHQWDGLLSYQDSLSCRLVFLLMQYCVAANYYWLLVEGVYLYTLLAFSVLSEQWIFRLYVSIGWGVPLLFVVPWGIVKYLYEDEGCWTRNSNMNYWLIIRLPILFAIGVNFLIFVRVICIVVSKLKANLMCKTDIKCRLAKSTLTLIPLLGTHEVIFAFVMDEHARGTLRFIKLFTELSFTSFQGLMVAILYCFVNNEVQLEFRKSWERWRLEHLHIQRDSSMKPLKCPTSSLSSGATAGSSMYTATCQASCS

| SMILES | EC50 (GLP1R; [3]) | SCTR EC50/GLP1R EC50 ratio (GLP1R) | Turbidity (pH 7) [1] | Fibril formation [2] | EC50 (SCTR; [4]) | Selectivity (GLP1R; SCTR EC50/GLP1R EC50 ratio) | EC50 (GLP1R; read-out: pEC50 hGLPR1 (converted)) | EC50 (SCTR; read-out: pEC50 hSCTR (converted)) | pEC50 (GLP1R) | pEC50 (SCTR) |
| --- | --- | --- | --- | --- | --- | --- | --- | --- | --- | --- |
| CC(C)C[C@H](NC(=O)[C@H](Cc1ccccc1)NC(=O)[C@H](CCCNC(=N)N)NC(=O)[C@H](CCC(N)=O)NC(=O)[C@H](CC(C)C)NC(=O)C(C)(C)NC(=O)[C@H](C)NC(=O)[C@H](CCC(=O)O)NC(=O)[C@H](CCC(=O)O)NC(=O)[C@H](Cc1c[nH]c2ccccc12)NC(=O)[C@H](CC(C)C)NC(=O)[C@H](Cc1ccc(O)cc1)NC(=O)[C@H](CO)NC(=O)[C@@H](NC(=O)[C@H](CC(=O)O)NC(=O)[C@H](CO)NC(=O)[C@@H](NC(=O)[C@H](Cc1ccccc1)NC(=O)[C@@H](NC(=O)CNC(=O)[C@H](CCC(=O)O)NC(=O)C(C)(C)NC(=O)[C@@H](N)Cc1c[nH]cn1)[C@@H](C)O)[C@@H](C)O)C(C)C)C(=O)N[C@@H](CCC(=O)O)C(=O)N[C@@H](CCCCNC(=O)COCCOCCNC(=O)COCCOCCNC(=O)CC[C@H](NC(=O)CCCCCCCCCCCCCCCCCCC(=O)O)C(=O)O)C(=O)N[C@@H](CC(C)C)C(=O)N[C@H](C(N)=O)C(C)C [compound 130] (H-H[Aib]EGTFTSDVSYLWEEA[Aib]LQRFLEK([AEEA-AEEA-γGlu-C20 diacid])LV-NH2) | 0.0316 nM | 34990 | 0.08 | 4181 | 1000 nM | – | – | – | – | – |
| CC(C)C[C@H](NC(=O)[C@H](Cc1ccccc1)NC(=O)[C@H](CCCNC(=N)N)NC(=O)[C@H](CCC(N)=O)NC(=O)[C@H](C)NC(=O)[C@H](C)NC(=O)[C@H](C)NC(=O)[C@@H](NC(=O)[C@H](CCC(=O)O)NC(=O)[C@H](CCCCNC(=O)COCCOCCNC(=O)COCCOCCNC(=O)CC[C@H](NC(=O)CCCCCCCCCCCCCCCCCCC(=O)O)C(=O)O)NC(=O)[C@H](CC(C)C)NC(=O)[C@H](CCC(=O)O)NC(=O)[C@H](CO)NC(=O)[C@@H](NC(=O)[C@H](CC(=O)O)NC(=O)[C@H](CO)NC(=O)[C@@H](NC(=O)[C@H](Cc1ccccc1)NC(=O)[C@@H](NC(=O)CNC(=O)[C@H](CCC(=O)O)NC(=O)C(C)(C)NC(=O)[C@@H](N)Cc1c[nH]cn1)[C@@H](C)O)[C@@H](C)O)C(C)C)[C@@H](C)O)C(=O)N[C@@H](CCC(=O)O)C(=O)N[C@@H](Cc1c[nH]cn1)C(=O)N[C@@H](CC(C)C)C(=O)N[C@H](C(N)=O)C(C)C [compound 57] (H-H[Aib]EGTFTSDVSELK([AEEA-AEEA-γGlu-C20 diacid])ETAAAQRFLEHLV-NH2) | – | – | 0.08 | 4882 | – | 212618 | 0.0251 nM | 5010 nM | – | – |
| CC(C)C[C@H](NC(=O)[C@H](Cc1ccccc1)NC(=O)[C@H](CCCNC(=N)N)NC(=O)[C@H](CCC(N)=O)NC(=O)[C@H](CC(C)C)NC(=O)C(C)(C)NC(=O)[C@H](C)NC(=O)[C@H](CCC(=O)O)NC(=O)[C@H](CCC(=O)O)NC(=O)[C@H](Cc1c[nH]cn1)NC(=O)[C@H](CC(C)C)NC(=O)[C@H](Cc1ccc(O)cc1)NC(=O)[C@H](CO)NC(=O)[C@@H](NC(=O)[C@H](CC(=O)O)NC(=O)[C@H](CO)NC(=O)[C@@H](NC(=O)[C@H](Cc1ccccc1)NC(=O)[C@@H](NC(=O)CNC(=O)[C@H](CCC(=O)O)NC(=O)C(C)(C)NC(=O)[C@@H](N)Cc1c[nH]cn1)[C@@H](C)O)[C@@H](C)O)C(C)C)C(=O)N[C@@H](CCC(=O)O)C(=O)N[C@@H](CCCCNC(=O)COCCOCCNC(=O)COCCOCCNC(=O)CC[C@H](NC(=O)CCCCCCCCCCCCCCCCCCC(=O)O)C(=O)O)C(=O)N[C@@H](CC(C)C)C(=O)N[C@H](C(N)=O)C(C)C [compound 164] (H-H[Aib]EGTFTSDVSYLHEEA[Aib]LQRFLEK([AEEA-AEEA-γGlu-C20 diacid])LV-NH2) | 0.02 nM | 11362 | 0.08 | 4789 | 251 nM | – | – | – | – | – |
| CC(C)C[C@H](NC(=O)[C@H](Cc1ccccc1)NC(=O)[C@H](CCCNC(=N)N)NC(=O)[C@H](CCC(N)=O)NC(=O)[C@H](CC(C)C)NC(=O)C(C)(C)NC(=O)[C@H](C)NC(=O)[C@H](CCC(=O)O)NC(=O)[C@H](CCC(=O)O)NC(=O)[C@H](CCCCNC(=O)COCCOCCNC(=O)COCCOCCNC(=O)CC[C@H](NC(=O)CCCCCCCCCCCCCCCCCCC(=O)O)C(=O)O)NC(=O)[C@H](CC(C)C)NC(=O)[C@H](CC(C)C)NC(=O)[C@H](CO)NC(=O)[C@@H](NC(=O)[C@H](CC(=O)O)NC(=O)[C@H](CO)NC(=O)[C@@H](NC(=O)[C@H](Cc1ccccc1)NC(=O)[C@@H](NC(=O)CNC(=O)[C@H](CCC(=O)O)NC(=O)C(C)(C)NC(=O)[C@@H](N)Cc1c[nH]cn1)[C@@H](C)O)[C@@H](C)O)C(C)C)C(=O)N[C@@H](CCC(=O)O)C(=O)N[C@@H](Cc1c[nH]cn1)C(=O)N[C@@H](CC(C)C)C(=O)N[C@H](C(N)=O)C(C)C [compound 149] (H-H[Aib]EGTFTSDVSLLK([AEEA-AEEA-γGlu-C20 diacid])EEA[Aib]LQRFLEHLV-NH2) | 0.0126 nM | 2619 | 0.08 | 2878 | 31.6 nM | – | – | – | – | – |
| CC[C@H](C)[C@H](NC(=O)[C@H](Cc1ccccc1)NC(=O)[C@H](CCCNC(=N)N)NC(=O)[C@H](CCC(N)=O)NC(=O)[C@H](CC(C)C)NC(=O)[C@H](C)NC(=O)[C@H](C)NC(=O)CNC(=O)[C@H](CCC(=O)O)NC(=O)[C@H](CC(C)C)NC(=O)[C@H](CC(C)C)NC(=O)[C@H](Cc1c[nH]c2ccccc12)NC(=O)[C@H](CO)NC(=O)[C@@H](NC(=O)[C@H](CC(=O)O)NC(=O)[C@H](CO)NC(=O)[C@@H](NC(=O)[C@H](Cc1ccccc1)NC(=O)[C@@H](NC(=O)CNC(=O)[C@H](CCC(=O)O)NC(=O)C(C)(C)NC(=O)[C@@H](N)Cc1c[nH]cn1)[C@@H](C)O)[C@@H](C)O)[C@@H](C)CC)C(=O)N[C@@H](CCC(N)=O)C(=O)N[C@@H](Cc1c[nH]c2ccccc12)C(=O)N[C@@H](CC(C)C)C(=O)N[C@H](C(N)=O)C(C)C [compound 118] (H-H[Aib]EGTFTSDISWLLEGAALQRFIQWLV-NH2) | 0.0631 nM | 1256 | 0.63 | 143374 | 79.4 nM | – | – | – | – | – |
| CC(C)C[C@H](NC(=O)[C@H](Cc1ccccc1)NC(=O)[C@H](CCCNC(=N)N)NC(=O)[C@H](CCC(N)=O)NC(=O)[C@@H](NC(=O)[C@H](C)NC(=O)[C@H](C)NC(=O)[C@@H](NC(=O)[C@H](CCC(=O)O)NC(=O)[C@H](CCCCNC(=O)COCCOCCNC(=O)COCCOCCNC(=O)CC[C@H](NC(=O)CCCCCCCCCCCCCCCCCCC(=O)O)C(=O)O)NC(=O)[C@H](CC(C)C)NC(=O)[C@@H](NC(=O)[C@H](CO)NC(=O)[C@@H](NC(=O)[C@H](CC(=O)O)NC(=O)[C@H](CO)NC(=O)[C@@H](NC(=O)[C@H](Cc1ccccc1)NC(=O)[C@@H](NC(=O)CNC(=O)[C@H](CCC(=O)O)NC(=O)C(C)(C)NC(=O)[C@@H](N)Cc1c[nH]cn1)[C@@H](C)O)[C@@H](C)O)C(C)C)[C@@H](C)O)[C@@H](C)O)[C@@H](C)O)C(=O)N[C@@H](CCC(=O)O)C(=O)N[C@@H](Cc1c[nH]cn1)C(=O)N[C@@H](CC(C)C)C(=O)N[C@H](C(N)=O)C(C)C [compound 93] (H-H[Aib]EGTFTSDVSTLK([AEEA-AEEA-γGlu-C20 diacid])ETAATQRFLEHLV-NH2) | – | 36771 | 0.08 | 6728 | – | – | – | – | 11.00 | 6.50 |
| CC[C@H](C)[C@H](NC(=O)[C@H](CC(=O)O)NC(=O)[C@H](CO)NC(=O)[C@@H](NC(=O)[C@H](Cc1ccccc1)NC(=O)[C@@H](NC(=O)CNC(=O)[C@H](CCC(=O)O)NC(=O)C(C)(C)NC(=O)[C@@H](N)Cc1c[nH]cn1)[C@@H](C)O)[C@@H](C)O)C(=O)N[C@@H](CO)C(=O)N[C@@H](Cc1ccc(O)cc1)C(=O)N[C@@H](CC(C)C)C(=O)N[C@@H](CCCCNC(=O)COCCOCCNC(=O)COCCOCCNC(=O)CC[C@H](NC(=O)CCCCCCCCCCCCCCCCCCC(=O)O)C(=O)O)C(=O)N[C@@H](CCC(=O)O)C(=O)N[C@@H](CCC(=O)O)C(=O)N[C@@H](C)C(=O)NC(C)(C)C(=O)N[C@@H](CC(C)C)C(=O)N[C@@H](CCC(N)=O)C(=O)N[C@@H](CCCNC(=N)N)C(=O)N[C@@H](Cc1ccccc1)C(=O)N[C@@H](CC(C)C)C(=O)N[C@@H](CCC(=O)O)C(=O)N[C@@H](Cc1c[nH]cn1)C(=O)N[C@@H](CC(C)C)C(=O)N[C@H](C(N)=O)C(C)C [compound 114] (H-H[Aib]EGTFTSDISYLK([AEEA-AEEA-γGlu-C20 diacid])EEA[Aib]LQRFLEHLV-NH2) | 0.01 nM | 3608 | 0.08 | 4292 | 39.8 nM | – | – | – | – | – |
